Results as given in patent US10744171B2, “Sequential anti-cancer treatment” (Duke University, priority 2016, dated 2020).

Tested on: recurrent glioblastoma (WHO grade IV)
Details: human, in vivo

For `O=NN(CCCl)C(=O)NC1CCCCC1` [lomustine], the “clinical and imaging response after one cycle” value was “significant clinical and imaging response”, the “imaging and clinical response after first six weeks of therapy (one cycle), both of two patients” value was “significant imaging and clinical improvement” and the “response on brain scans after chemotherapy was added to Avastin” value was “Response”. The “time disease free (complete tumor disappearance) post PVSRIPO infusion” value was > 32 months.
